From patent US12622953B2, “Vaccines targeting neoepitopes” (Evaxion Biotech A/S, priority 2019, dated 2026)
“Also recorded” adds a separate entry of the source.

System: neo-peptide specific CD8+ T cells
Assay: MHC I multimer staining of whole blood after i.p. immunization
Type: in vivo, BALB/c mice
Details: endpoint day 28, 2.0 μg C22 i.p.
Experimental: 6-8 weeks old BALB/c JrJ femal mice were acquired from Janvier Labs. The mice were acclimated for one week before initiation of the experiment. The mice had ad libitum access to water and standard chow pellets. The experiment was conducted under license 2017-15-0201-01338 from the Danish Animal Experimentation Inspectorate in accordance with the Danish Animal Experimentation Act, which is stricter and therefore fully compliant with the European directive (2010/63/EU). The mice were ear tagged to allow for identification of individuals.
To avoid “cage effects” all treatment groups were represented in each cage. Mice in groups 1, 2, 3 and 4 (the cluster immunization groups) were intraperitoneally (i.p.) immunized at day 0, 1, 2, 3, 7, 14 and 21 with 0.4, 2.0, 10.0 and 50.0 μg of C22 admixed with CAF09b, respectively. Corresponding groups (5, 6, 7 and 8) were vaccinated according to a traditional prime-boost strategy on days 0, 14 and 21 with solutions identical to what group 1, 2, 3 and 4 received. Dosing volumes for the mice were 200 μl for all vaccines.
The C22 peptide was synthesised by GenScript and aliquoted into 0.8 mg portions as a lyophilized product. The peptide was solubilized in DMSO to a concentration of 10 mg/ml by adding 80 μl DMSO to each aliquot. The peptide stock was then diluted 10 times in sterile water (80 μl peptide stock+720 μl sterile water). […]

Question: “QIETQQRKFKASRASILSEMKMLKEKR (listed as Mus musculus) [Peptide C22]” was tested. Which “MHC:C22 positive CD8+ T cells in blood” value (cluster primed) did it give?
Answer: The value was “low-frequency MHC:C22 positive CD8+ T cells were detected; also recorded: small increase”.

Question: And the “neo-peptide specific CD8+ cells in blood” value (standard prime-boost schedule)?
Answer: Its value is “hardly any”.
